Measured values reported in patent publication US20060148763A1, “Compounds and methods for regulating triglyceride levels” (priority 2005, published 2006).

What was measured:
serum triglyceride (TG) = experiment: Phase II cross-over study of P5P alone and with lisinopril in hypertensive type 2 diabetic patients: triglycerides; assay type: in vivo, human; conditions: for TG change, 16 wk vs. baseline (b): Lisinopril/P5P therapy, patients with TG ≧1.7 mmol/L; for reduction in serum TG levels vs. baseline: patients with elevated TG (>1.7 mmol/L) at baseline
Method: (§1) Objective—A phase II clinical study was conducted to determine the effects of pyridoxal-5′-phosphate in combination with lisinopril on blood pressure and metabolic function in hypertensive patients with type 2 diabetes.
(§2) Summary of Study Design—The phase II study was a randomized, parallel group, cross-over, double-blinded to study medication, placebo-controlled comparison of P5P BID at total daily doses of 100, 300, or 1000 mg alone and in combination with 20 mg lisinopril given once daily (QD). In order to protect against antihypertensive and metabolic carry-over effects of lisinopril, all patients were randomized in 2 different treatment sequences. Patients randomized in the first treatment sequence receive an 8-week treatment with lisinopril 20 mg and P5P (or placebo) and then an 8-week treatment with P5P alone (or placebo). Patients randomized in the second treatment sequence receive an 8-week treatment with P5P alone and then an 8-week treatment with lisinopril 20 mg and P5P (or placebo). In each treatment sequence, all patients were randomized to P5P at the different prespecified dosages.
(§3) Mean trough sitting and standing BP were measured at each visit. Twenty-four hour ambulatory BP monitoring (ABPM) were performed at Visit 2 prior to randomization (end of washout period) and after week 8 (Visit 5) and week 16 (Visit 8) weeks of active therapy. Laboratory tests were performed at screening (Visit 1), prior to randomization (Visit 2), at week 2 (Visit 3a), week 8 (Visit 5), week 10 (Visit 6a), and at week 16 (Visit 8).
Treatment Plan—Two to Four-week Washout (Baseline) Period. Patients were instructed on the proper procedure for discontinuing their current antihypertensive medications (discontinuation or tapering) according to the manufacturer's label specifications. If a patient's current antihypertensive treatment needed to be tapered earlier, the Investigator complied with the corresponding timelines before randomization. With the exception of any tapering off of prior therapy, if any, no other anti-hypertensive medication was given to the patient during the washout period. Patients continued any existing diabetic treatment with sulfonylureas (tolbutamide, tolazamide, acetohexamide, chlorpropamide and second generation glyburide, glipizide, glimepiride), D-Phenylalanine derivatives, metformin, thiazolidinediones, acarbose, miglitol, and/or insulin throughout the study. Patients received placebo to be taken twice daily during the washout period. Standard diabetic medication was maintained throughout study. The duration of the washout period was two to four weeks, at the discretion of the Investigator taking into consideration whether the patient's blood pressure had stabilized following removal of any prior antihypertensive medication. […]

Non-HDL = experiment: Phase II cross-over study of P5P alone and with lisinopril in hypertensive type 2 diabetic patients: non-HDL; assay type: in vivo, human
Method: as §1, §2, §3
Treatment Plan—Two to Four-week Washout (Baseline) Period. Patients were instructed on the proper procedure for discontinuing their current antihypertensive medications (discontinuation or tapering) according to the manufacturer's label specifications. If a patient's current antihypertensive treatment needed to be tapered earlier, the Investigator complied with the corresponding timelines before randomization. With the exception of any tapering off of prior therapy, if any, no other anti-hypertensive medication was given to the patient during the washout period. Patients continued any existing diabetic treatment with sulfonylureas (tolbutamide, tolazamide, acetohexamide, chlorpropamide and second generation glyburide, glipizide, glimepiride), D-Phenylalanine derivatives, metformin, thiazolidinediones, acarbose, miglitol, and/or insulin throughout the study. Patients received placebo to be taken twice daily during the washout period. Standard diabetic medication was maintained throughout study. The duration of the washout period was two to four weeks, at the discretion of the Investigator taking into consideration whether the patient's blood pressure had stabilized following removal of any prior antihypertensive medication.
Active (Study) Medication Period: After the washout period, eligible patients were randomized to one of the 2 following sequences of treatment for 16 weeks.
Week 0 to 8: Treatment period (P5P alone (or placebo) or P5P (or placebo) and Lisinopril)
Week 8 to 16: Treatment period (P5P alone (or placebo) or P5P (or placebo) and Lisinopril)
Study Groups—The patients were randomized into one of […] groups:
Sequence 1 P5P 300 mg and then P5P 300 mg+Lisinopril 20 mg
Sequence 2 P5P 300 mg+Lisinopril 20 mg and then P5P 300 mg alone
All medications were taken at the same time each day during washout and treatment periods:
Other Efficacy Endpoints—Analytical efficacy measurements, including markers of metabolic function (insulinemia, fasting serum glucose, glycated hemoglobin, LDL, HDL, non-HDL and triglycerides), endothelial function (ICAM-1, VCAM-1, E-selectin and albuminuria), kidney function (creatinine, glomular filtration rate), CRP and homocysteine, were conducted on blood samples taken on Visits 2, 5 and 8. Samples were sent to a central laboratory for analysis.

[1] = P5P 300 mg, patients with Non HDL >3.34 mmol/L

SMILES: Cc1ncc(COP(=O)(O)O)c(C=O)c1O [P5P, pyridoxal-5′-phosphate]
- TG change, 16 wk vs. baseline (b) (serum triglyceride (TG); P5P 300 mg daily (BID)): −0.70 mmol/L (p = 0.04)b
- reduction in serum TG levels vs. baseline (serum triglyceride (TG); P5P 300 mg): about 0.70 mmol/L
- TG change, 16 wk vs. baseline (b) (serum triglyceride (TG); P5P 1000 mg daily (BID)): −0.56 mmol/L (p = 0.12)b
- reduction in serum TG levels vs. baseline (serum triglyceride (TG); P5P 1000 mg): about 0.56 mmol/L
- Non-HDL change vs baseline (b) (Non-HDL; P5P 300 mg, non-stratified, calculated number, not measured in plasma): −0.21 mmol/L (p=)b
- Non-HDL change (Non-HDL; [1]): −0.68 mmol/L (p = 0.029)
- Non-HDL reduction vs baseline (b) (Non-HDL; [1]): (15%)b
- reduction in non-HDL compared to baseline (Non-HDL; P5P 300 mg, patients with non-HDL >3.34 mmol/L at baseline): 0.68 mmol/L
- Non-HDL change vs baseline (b) (Non-HDL; P5P 1000 mg, non-stratified, calculated number, not measured in plasma): −0.26 mmol/L (p = 0.089)b
- Non-HDL change vs baseline (b) (Non-HDL; P5P 1000 mg, patients with Non HDL >3.34 mmol/L): −0.71 mmol/L (p = 0.007)b
- decrease in non-HDL vs. baseline (Non-HDL; P5P 1000 mg, patients with non-HDL. 3.34 mmol/L): 0.71 mmol/L
